From patent publication US10174035B2, “6-morpholinyl-2-pyrazolyl-9H-purine derivatives and their use as PI3K inhibitors” (Daiichi Sankyo Company, Limited, priority 2015, dated 2019)

Molecular target: recombinant PI3K δ enzyme (Homo sapiens (Human), UniProt O00329)
Assay: In vitro enzyme assay (Kinase-Glo luminescent kinase assay), PI3Kδ
Assay type: biochemical
Protocol: The Kinase-Glo luminescent kinase assay kit (from Promega) was used to measure kinase activity. In this assay, amount of ATP remaining in solution following a kinase reaction is measured. The effect of compounds on PI3Kδ inhibition was carried out by adding 2.29 μg/ml of recombinant PI3K δ enzyme (Proteros, Germany) to reaction mixture containing assay buffer (50 mM HEPES, pH 7.4, 50 mM NaCl, 0.05% CHAPS) supplemented with 10 mM MgCl2, 5 mM DTT, 60 μM Phosphatidyl inositol bisphosphate (PIP2) and 10 μM ATP in the absence or presence of different concentrations of the compounds in a final volume of 15 μl/well, in a 384 well plate. The reaction mixture was incubated for 2 hours at room temperature. At the end of incubation period the equal volume of Kinase-Glo plus (Promega, V3772), was added per well and the luminescence was measured after incubating for 10 minutes at room temperature in dark. Results were calculated by measuring the luminescence units of test samples to blanks containing no enzyme.
The compounds of the present invention were tested for their selectivity for PI3Kδ over PI3Kα, PI3Kβ and PI3Kγ following the above assay using specific recombinant enzymes (Proteros, Germany) for each kinase. Assay condition of kinase assay (PI3Kα, PI3Kβ, PI3Kγ and PI3Kδ) was as follows. Enzyme: 2.29 μg/mL; ATP: 10 μM; PIP2 substrate: 60 μM and Reaction Time: 2 hours.

recombinant PI3K δ enzyme, sequence (O00329 whole entry, species assumed): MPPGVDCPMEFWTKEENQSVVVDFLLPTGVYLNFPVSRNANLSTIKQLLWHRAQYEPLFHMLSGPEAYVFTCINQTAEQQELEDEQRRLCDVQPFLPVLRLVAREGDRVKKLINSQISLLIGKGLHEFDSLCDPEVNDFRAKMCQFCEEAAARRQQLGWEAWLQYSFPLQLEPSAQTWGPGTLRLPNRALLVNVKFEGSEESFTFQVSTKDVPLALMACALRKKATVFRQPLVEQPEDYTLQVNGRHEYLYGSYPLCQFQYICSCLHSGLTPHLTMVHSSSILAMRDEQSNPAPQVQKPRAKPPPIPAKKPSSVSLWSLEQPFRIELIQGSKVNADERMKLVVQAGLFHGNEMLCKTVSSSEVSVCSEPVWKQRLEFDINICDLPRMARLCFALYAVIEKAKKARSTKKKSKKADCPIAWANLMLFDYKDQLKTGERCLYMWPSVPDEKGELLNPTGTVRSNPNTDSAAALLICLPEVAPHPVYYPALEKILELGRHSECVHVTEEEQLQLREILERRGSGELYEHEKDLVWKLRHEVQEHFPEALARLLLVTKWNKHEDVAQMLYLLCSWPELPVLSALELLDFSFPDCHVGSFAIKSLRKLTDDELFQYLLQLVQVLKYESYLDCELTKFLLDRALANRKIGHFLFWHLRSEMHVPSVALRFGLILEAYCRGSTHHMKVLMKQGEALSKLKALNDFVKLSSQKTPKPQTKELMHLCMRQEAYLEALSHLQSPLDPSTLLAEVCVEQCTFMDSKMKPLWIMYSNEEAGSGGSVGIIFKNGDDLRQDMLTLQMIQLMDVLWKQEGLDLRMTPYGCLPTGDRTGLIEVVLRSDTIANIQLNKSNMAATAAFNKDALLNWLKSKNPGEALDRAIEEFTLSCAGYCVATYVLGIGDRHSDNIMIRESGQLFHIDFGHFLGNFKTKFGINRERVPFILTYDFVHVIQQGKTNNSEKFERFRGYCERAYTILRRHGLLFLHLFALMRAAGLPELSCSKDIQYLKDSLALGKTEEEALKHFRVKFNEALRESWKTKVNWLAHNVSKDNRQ
recombinant PI3K δ enzyme, sequence (P27986 whole entry partner, species assumed): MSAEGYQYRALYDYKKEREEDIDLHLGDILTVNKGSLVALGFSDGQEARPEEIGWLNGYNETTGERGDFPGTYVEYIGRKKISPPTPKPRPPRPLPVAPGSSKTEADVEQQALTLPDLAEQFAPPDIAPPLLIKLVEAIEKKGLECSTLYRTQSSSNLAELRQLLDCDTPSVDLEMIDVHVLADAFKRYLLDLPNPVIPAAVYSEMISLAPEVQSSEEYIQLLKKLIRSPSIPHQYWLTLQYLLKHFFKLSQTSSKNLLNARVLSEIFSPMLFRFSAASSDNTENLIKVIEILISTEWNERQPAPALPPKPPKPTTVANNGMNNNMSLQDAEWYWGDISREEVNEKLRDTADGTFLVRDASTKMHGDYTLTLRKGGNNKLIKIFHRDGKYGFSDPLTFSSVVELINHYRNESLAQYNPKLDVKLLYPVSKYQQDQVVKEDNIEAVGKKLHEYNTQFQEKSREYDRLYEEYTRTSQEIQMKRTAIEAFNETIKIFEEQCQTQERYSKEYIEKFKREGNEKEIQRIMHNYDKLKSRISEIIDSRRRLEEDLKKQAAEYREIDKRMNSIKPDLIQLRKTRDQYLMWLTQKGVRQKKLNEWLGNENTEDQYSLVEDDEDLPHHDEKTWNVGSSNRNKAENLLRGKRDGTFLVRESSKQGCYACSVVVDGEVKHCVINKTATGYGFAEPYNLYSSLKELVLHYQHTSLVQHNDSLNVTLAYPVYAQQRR

IC50	Compound
465 nM	Cn1cc(-c2nc(N3CCOCC3)c3nc(C(=O)N4CCNC(=O)C4)[nH]c3n2)cn1 [compound 31, 4-{[2-(1-Methyl-1H-pyrazol-4-yl)-6-(morpholin-4-yl)-9H-purin-8-yl]carbonyl}piperazin-2-one]
366 nM	Cn1cc(-c2nc(N3CCOCC3)c3nc(C(=O)NC4CCCCC4)[nH]c3n2)cn1 [compound 33, N-cyclohexyl-2-(1-methyl-1H-pyrazol-4-yl)-6-(morpholin-4-yl)-9H-purine-8-carboxamide]
305 nM	Cn1cc(-c2nc(N3CCOCC3)c3nc(C(=O)N4CCN(S(C)(=O)=O)CC4)[nH]c3n2)cn1 [compound 34, [2-(1-Methyl-1H-pyrazol-4-yl)-6-(morpholin-4-yl)-9H-purin-8-yl][4-(methylsulfonyl)piperazin-1-yl]methanone]
15 nM	Cn1cc(-c2nc(N3CCOCC3)c3nc(C(=O)NCC4CCCCC4)[nH]c3n2)cn1 [compound 36, N-(Cyclohexylmethyl)-2-(1-methyl-1H-pyrazol-4-yl)-6-(morpholin-4-yl)-9H-purine-8-carboxamide]
31 nM	CC(=O)N[C@H]1CCN(C(=O)c2nc3c(N4CCOCC4)nc(-c4cnn(C)c4)nc3[nH]2)C1 [compound 37, N-[(3S)-1-{[2-(1-methyl-1H-pyrazol-4-yl)-6-(morpholin-4-yl)-9H-purin-8-yl]carbonyl}pyrrolidin-3-yl]acetamide]
20 nM	Cn1cc(-c2nc(N3CCOCC3)c3nc(C(=O)N4CC[C@@H](NS(C)(=O)=O)C4)[nH]c3n2)cn1 [compound 38, N-[(3R)-1-{[2-(1-methyl-1H-pyrazol-4-yl)-6-(morpholin-4-yl)-9H-purin-8-yl]carbonyl}pyrrolidin-3-yl]methanesulfonamide]
26 nM	CC(=O)N1CCN(C(=O)c2nc3c(N4CCOCC4)nc(-c4cnn(C)c4)nc3[nH]2)CC1 [compound 39, 1-(4-{[2-(1-Methyl-1H-pyrazol-4-yl)-6-(morpholin-4-yl)-9H-purin-8-yl]carbonyl}piperazin-1-yl)ethanone]
28 nM	Cc1c(-c2nc(N3CCOCC3)c3nc(C(=O)N4CCC(N5CCOCC5)CC4)[nH]c3n2)cnn1C [compound 40, [2-(1,5-Dimethyl-1H-pyrazol-4-yl)-6-(morpholin-4-yl)-9H-purin-8-yl][4-(morpholin-4-yl)piperidin-1-yl]methanone]
57 nM	Cn1cc(-c2nc(N3CCOCC3)c3nc(C(=O)N4CCN(C(=O)OC(C)(C)C)CC4)[nH]c3n2)cn1 [compound 43, Tert-butyl 4-{[2-(1-methyl-1H-pyrazol-4-yl)-6-(morpholin-4-yl)-9H-purin-8-yl]carbonyl}piperazine-1-carboxylate]
76 nM	CN(C)[C@H]1CCN(C(=O)c2nc3c(N4CCOCC4)nc(-c4cnn(C)c4)nc3[nH]2)C1 [compound 44, [(3S)-3-(Dimethylamino)pyrrolidin-1-yl][2-(1-methyl-1H-pyrazol-4-yl)-6-(morpholin-4-yl)-9H-purin-8-yl]methanone]
48 nM	CCOC(=O)CN1CCN(C(=O)c2nc3c(N4CCOCC4)nc(-c4cnn(C)c4)nc3[nH]2)CC1 [compound 45, Ethyl (4-{[2-(1-methyl-1H-pyrazol-4-yl)-6-(morpholin-4-yl)-9H-purin-8-yl]carbonyl}piperazin-1-yl)acetate]
69 nM	CN1CCN(C(=O)c2nc3c(N4CCOCC4)nc(-c4cnn(C)c4)nc3[nH]2)CC1 [compound 46, (4-Methylpiperazin-1-yl)[2-(1-methyl-1H-pyrazol-4-yl)-6-(morpholin-4-yl)-9H-purin-8-yl]methanone]
139 nM	CN1CCC(NC(=O)c2nc3c(N4CCOCC4)nc(-c4cnn(C)c4)nc3[nH]2)CC1 [compound 47, N-(1-Methylpiperidin-4-yl)-2-(1-methyl-1H-pyrazol-4-yl)-6-(morpholin-4-yl)-9H-purine-8-carboxamide]
76 nM	CN(C)C(=O)c1nc2c(N3CCOCC3)nc(-c3cnn(C)c3)nc2[nH]1 [compound 48, N,N-Dimethyl-2-(1-methyl-1H-pyrazol-4-yl)-6-(morpholin-4-yl)-9H-purine-8-carboxamide]
62 nM	Cn1cc(-c2nc(N3CCOCC3)c3nc(C(=O)NC4CCN(Cc5ccccc5)CC4)[nH]c3n2)cn1 [compound 49, N-(1-Benzylpiperidin-4-yl)-2-(1-methyl-1H-pyrazol-4-yl)-6-(morpholin-4-yl)-9H-purine-8-carboxamide]
205 nM	Cn1cc(-c2nc(N3CCOCC3)c3nc(C(=O)N4CCC(CC(=O)O)CC4)[nH]c3n2)cn1 [compound 50, (1-{[2-(1-Methyl-1H-pyrazol-4-yl)-6-(morpholin-4-yl)-9H-purin-8-yl]carbonyl}piperidin-4-yl)acetic acid]
56 nM	CCOC(=O)CC1CCN(C(=O)c2nc3c(N4CCOCC4)nc(-c4cnn(C)c4)nc3[nH]2)CC1 [compound 51, Ethyl (1-{[2-(1-methyl-1H-pyrazol-4-yl)-6-(morpholin-4-yl)-9H-purin-8-yl]carbonyl}piperidin-4-yl)acetate]
231 nM	COCCNC(=O)c1nc2c(N3CCOCC3)nc(-c3cnn(C)c3)nc2[nH]1 [compound 52, N-(2-Methoxyethyl)-2-(1-methyl-1H-pyrazol-4-yl)-6-(morpholin-4-yl)-9H-purine-8-carboxamide]
88 nM	Cn1cc(-c2nc(N3CCOCC3)c3nc(C(=O)N4CCCCC4)[nH]c3n2)cn1 [compound 53, [2-(1-Methyl-1H-pyrazol-4-yl)-6-(morpholin-4-yl)-9H-purin-8-yl](piperidin-1-yl)methanone]
68 nM	CN(C)C1CCN(C(=O)c2nc3c(N4CCOCC4)nc(-c4cnn(C)c4)nc3[nH]2)CC1 [compound 57, [4-(Dimethylamino)piperidin-1-yl][2-(1-methyl-1H-pyrazol-4-yl)-6-(morpholin-4-yl)-9H-purin-8-yl]methanone]
206 nM	CCN(CCN1CCOCC1)C(=O)c1nc2c(N3CCOCC3)nc(-c3cnn(C)c3)nc2[nH]1 [compound 59, N-ethyl-2-(1-methyl-1H-pyrazol-4-yl)-6-(morpholin-4-yl)-N-[2-(morpholin-4-yl)ethyl]-9H-purine-8-carboxamide]
159 nM	CN(CCN1CCOCC1)C(=O)c1nc2c(N3CCOCC3)nc(-c3cnn(C)c3)nc2[nH]1 [compound 60, N-methyl-2-(1-methyl-1H-pyrazol-4-yl)-6-(morpholin-4-yl)-N-[2-(morpholin-4-yl)ethyl]-9H-purine-8-carboxamide]
61 nM	Cn1cc(-c2nc(N3CCOCC3)c3nc(C(=O)N4CC[C@H](O)C4)[nH]c3n2)cn1 [compound 62, [(3S)-3-Hydroxypyrrolidin-1-yl][2-(1-methyl-1H-pyrazol-4-yl)-6-(morpholin-4-yl)-9H-purin-8-yl]methanone]
21 nM	Cn1cc(-c2nc(N3CCOCC3)c3nc(C(=O)NCCCN4CCOCC4)[nH]c3n2)cn1 [compound 63, 2-(1-Methyl-1H-pyrazol-4-yl)-6-(morpholin-4-yl)-N-[3-(morpholin-4-yl)propyl]-9H-purine-8-carboxamide]
21 nM	Cc1n[nH]cc1-c1nc(N2CCOCC2)c2nc(C(=O)N3CCC(N4CCOCC4)CC3)[nH]c2n1 [compound 66, [2-(3-Methyl-1H-pyrazol-4-yl)-6-(morpholin-4-yl)-9H-purin-8-yl][4-(morpholin-4-yl)piperidin-1-yl]methanone]
61 nM	CCN(CCCN1CCOCC1)C(=O)c1nc2c(N3CCOCC3)nc(-c3cnn(C)c3)nc2[nH]1 [compound 69, N-ethyl-2-(1-methyl-1H-pyrazol-4-yl)-6-(morpholin-4-yl)-N-[3-(morpholin-4-yl)propyl]-9H-purine-8-carboxamide]
54 nM	CN1CCN(CCNC(=O)c2nc3c(N4CCOCC4)nc(-c4cnn(C)c4)nc3[nH]2)CC1 [compound 70, N-[2-(4-methylpiperazin-1-yl)ethyl]-2-(1-methyl-1H-pyrazol-4-yl)-6-(morpholin-4-yl)-9H-purine-8-carboxamide]
30 nM	Cc1nn(C)cc1-c1nc(N2CCOCC2)c2nc(C(=O)NCC3(CO)COC3)[nH]c2n1 [compound 71, 2-(1,3-Dimethyl-1H-pyrazol-4-yl)-N-{[3-(hydroxymethyl)oxetan-3-yl]methyl}-6-(morpholin-4-yl)-9H-purine-8-carboxamide]
60 nM	Cn1cc(-c2nc(N3CCOCC3)c3nc(C(=O)NCCCN4CCCC4=O)n(C)c3n2)cn1 [compound 73, 9-Methyl-2-(1-methyl-1H-pyrazol-4-yl)-6-(morpholin-4-yl)-N-[3-(2-oxopyrrolidin-1-yl)propyl]-9H-purine-8-carboxamide]
8 nM	O=C(c1nc2c(N3CCOCC3)nc(-c3cn[nH]c3)nc2[nH]1)N1CCC(N2CCOCC2=O)CC1 [compound 74, 4-(1-{[6-(Morpholin-4-yl)-2-(1H-pyrazol-4-yl)-9H-purin-8-yl]carbonyl}piperidin-4-yl)morpholin-3-one]

Compound	IC50
Cn1cc(-c2nc(N3CCOCC3)c3nc(C(=O)N4CCN(c5ccccc5)CC4)[nH]c3n2)cn1 [compound 32, [2-(1-Methyl-1H-pyrazol-4-yl)-6-(morpholin-4-yl)-9H-purin-8-yl](4-phenylpiperazin-1-yl)methanone]	56 nM
Cn1cc(-c2nc(N3CCOCC3)c3nc(C(=O)N4CCC(c5ccccc5)CC4)[nH]c3n2)cn1 [compound 35, [2-(1-Methyl-1H-pyrazol-4-yl)-6-(morpholin-4-yl)-9H-purin-8-yl](4-phenylpiperidin-1-yl)methanone]	17 nM
